# Results: PubChem BioAssay AID2060900 (Molecular Pharmacology Branch, DTP, NCI, 2025)
# Several values for one entry are separate records, joined by “and”; a condition that tells them apart may be missing. Equal entries are not always repeated.
# Test system: 521955-158-R2-J5-PDC complex spheroids, viability
# Experiment: Anticancer human tumor 521955-158-R2-J5-PDC patient-derived pancreatic carcinoma cell line growth inhibition [RAS]
# Conditions: for viability, T/C: stronger effect = lower value
# How it was run: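 Tumour cells grown as complex spheroids with HUVEC endothelial cells and mesenchymal stem cells, treated with RAS pathway inhibitor combinations. Each agent spans half-log steps from near clinical Cmax, or 10 microM where Cmax is unknown.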
# [1] = curve of first compound, second compound 0.000949 µM
# [2] = curve of first compound, second compound 0.003 µM
# [3] = curve of first compound, second compound 0.00949 µM
# [4] = curve of first compound, second compound 0.03 µM
# [5] = curve of first compound, second compound 0.0949 µM
# [6] = curve of first compound, second compound 0.3 µM
# [7] = second compound 0.000949 µM, first compound 0.00316 µM
# [8] = second compound 0.000949 µM, first compound 0.01 µM
# [9] = second compound 0.000949 µM, first compound 0.0316 µM
# [10] = second compound 0.000949 µM, first compound 0.1 µM
# [11] = second compound 0.000949 µM, first compound 0.316 µM
# [12] = second compound 0.000949 µM, first compound 1 µM
# [13] = second compound 0.003 µM, first compound 0.00316 µM
# [14] = second compound 0.003 µM, first compound 0.01 µM
# [15] = second compound 0.003 µM, first compound 0.0316 µM
# [16] = second compound 0.003 µM, first compound 0.1 µM
# [17] = second compound 0.003 µM, first compound 0.316 µM
# [18] = second compound 0.003 µM, first compound 1 µM
# [19] = second compound 0.00949 µM, first compound 0.00316 µM
# [20] = second compound 0.00949 µM, first compound 0.01 µM
# [21] = second compound 0.00949 µM, first compound 0.0316 µM
# [22] = second compound 0.00949 µM, first compound 0.1 µM
# [23] = second compound 0.00949 µM, first compound 0.316 µM
# [24] = second compound 0.00949 µM, first compound 1 µM
# [25] = second compound 0.03 µM, first compound 0.00316 µM
# [26] = second compound 0.03 µM, first compound 0.01 µM
# [27] = second compound 0.03 µM, first compound 0.0316 µM
# [28] = second compound 0.03 µM, first compound 0.1 µM
# [29] = second compound 0.03 µM, first compound 0.316 µM
# [30] = second compound 0.03 µM, first compound 1 µM
# [31] = second compound 0.0949 µM, first compound 0.00316 µM
# [32] = second compound 0.0949 µM, first compound 0.01 µM
# [33] = second compound 0.0949 µM, first compound 0.0316 µM
# [34] = second compound 0.0949 µM, first compound 0.1 µM
# [35] = second compound 0.0949 µM, first compound 0.316 µM
# [36] = second compound 0.0949 µM, first compound 1 µM
# [37] = second compound 0.3 µM, first compound 0.00316 µM
# [38] = second compound 0.3 µM, first compound 0.01 µM
# [39] = second compound 0.3 µM, first compound 0.0316 µM
# [40] = second compound 0.3 µM, first compound 0.1 µM
# [41] = second compound 0.3 µM, first compound 0.316 µM
# [42] = second compound 0.3 µM, first compound 1 µM
# 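Note: compound exposure lasted seven days before the viability read.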
# 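Throughout, for viability, T/C: spheroids also contain HUVEC endothelial cells and mesenchymal stem cells as stroma.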
smiles,measurement,setting,value
Nc1ccn(C2OC(CO)C(O)C2(F)F)c(=O)n1 (stereo not drawn) + CCn1c(-c2cc(N3CCN(C)CC3)cnc2C(C)OC)c2c3cc(ccc31)-c1csc(n1)CC(NC(=O)C1CC1C)C(=O)N1CCCC(N1)C(=O)OCC(C)(C)C2,IC50,[1],< 3.16 nM
same,IC50,[2],< 3.16 nM
same,IC50,[3],< 3.16 nM
same,IC50,[4],< 3.16 nM
same,IC50,[5],< 3.16 nM
same,IC50,[6],< 3.16 nM
same,"viability, T/C",[7],35.3%
same,"viability, T/C",[8],29%
same,"viability, T/C",[9],30.2%
same,"viability, T/C",[10],21%
same,"viability, T/C",[11],22.9%
same,"viability, T/C",[12],12%
same,"viability, T/C",[13],39%
same,"viability, T/C",[14],33.4%
same,"viability, T/C",[15],36%
same,"viability, T/C",[16],28%
same,"viability, T/C",[17],20.5%
same,"viability, T/C",[18],17.2%
same,"viability, T/C",[19],32.2%
same,"viability, T/C",[20],28.8%
same,"viability, T/C",[21],29.9%
same,"viability, T/C",[22],21.4%
same,"viability, T/C",[23],19.8%
same,"viability, T/C",[24],20.6%
same,"viability, T/C",[25],22.5%
same,"viability, T/C",[26],20.6%
same,"viability, T/C",[27],18.3%
same,"viability, T/C",[28],19.4%
same,"viability, T/C",[29],13.7%
same,"viability, T/C",[30],12.7%
same,"viability, T/C",[31],10.2%
same,"viability, T/C",[32],11.2%
same,"viability, T/C",[33],13.3%
same,"viability, T/C",[34],12.4%
same,"viability, T/C",[35],9.85%
same,"viability, T/C",[36],7.8%
same,"viability, T/C",[37],13.4%
same,"viability, T/C",[38],9.3%
same,"viability, T/C",[39],11.2%
same,"viability, T/C",[40],11.1%
same,"viability, T/C",[41],9.17%
same,"viability, T/C",[42],11.8%
CCC(CC)c1cc(NC2CCC(N)C2)n2nccc2n1 (stereo not drawn) + CCn1c(-c2cc(N3CCN(C)CC3)cnc2C(C)OC)c2c3cc(ccc31)-c1csc(n1)CC(NC(=O)C1CC1C)C(=O)N1CCCC(N1)C(=O)OCC(C)(C)C2,IC50,[1],< 31.6 nM
same,IC50,[2],31.6 nM
same,IC50,[3],< 31.6 nM
same,IC50,[4],< 31.6 nM
same,IC50,[5],< 31.6 nM
same,IC50,[6],< 31.6 nM
same,"viability, T/C",[9],39%
same,"viability, T/C",[10],50.8%
same,"viability, T/C",[11],56%
same,"viability, T/C",[12],48.2%
same,"viability, T/C","second compound 0.000949 µM, first compound 3.16 µM",11.8%
same,"viability, T/C","second compound 0.000949 µM, first compound 10 µM",10.7%
same,"viability, T/C",[15],47.5%
same,"viability, T/C",[16],44.3%
same,"viability, T/C",[17],50.6%
same,"viability, T/C",[18],43%
same,"viability, T/C","second compound 0.003 µM, first compound 3.16 µM",6.49%
same,"viability, T/C","second compound 0.003 µM, first compound 10 µM",10.2%
same,"viability, T/C",[21],34.5%
same,"viability, T/C",[22],32.3%
same,"viability, T/C",[23],43.7%
same,"viability, T/C",[24],44.4%
same,"viability, T/C","second compound 0.00949 µM, first compound 3.16 µM",9.61%
same,"viability, T/C","second compound 0.00949 µM, first compound 10 µM",8.45%
same,"viability, T/C",[27],23.9%
same,"viability, T/C",[28],23.9%
same,"viability, T/C",[29],24.4%
same,"viability, T/C",[30],21.2%
same,"viability, T/C","second compound 0.03 µM, first compound 3.16 µM",7.51%
same,"viability, T/C","second compound 0.03 µM, first compound 10 µM",7.75%
same,"viability, T/C",[33],12.3%
same,"viability, T/C",[34],11.3%
same,"viability, T/C",[35],17.4%
same,"viability, T/C",[36],12.1%
same,"viability, T/C","second compound 0.0949 µM, first compound 3.16 µM",9.07%
same,"viability, T/C","second compound 0.0949 µM, first compound 10 µM",8.98%
same,"viability, T/C",[39],10.9%
same,"viability, T/C",[40],10.8%
same,"viability, T/C",[41],11.7%
same,"viability, T/C",[42],12.6%
same,"viability, T/C","second compound 0.3 µM, first compound 3.16 µM",10.9%
same,"viability, T/C","second compound 0.3 µM, first compound 10 µM",8.49%
Cc1nc(N2CCC3(CC2)COC(C)C3N)c(CO)nc1Sc1ccnc(N)c1Cl (stereo not drawn),"viability, T/C",compound 0.0316 µM,85.6% [middle of 4 runs]
same,"viability, T/C",compound 0.1 µM,71.7% [middle of 4 runs]
same,"viability, T/C",compound 0.316 µM,69.2% [middle of 4 runs]
same,"viability, T/C",compound 1 µM,67.1% [middle of 4 runs]
same,"viability, T/C",compound 3.16 µM,67% [middle of 4 runs]
same,"viability, T/C",compound 10 µM,57% and 57.9% (2×) and 51.2%
same,IC50,curve of compound,> 10000 nM
O=C(c1ccc(F)c(F)c1Nc1ccc(I)cc1F)N1CC(O)([C@@H]2CCCCN2)C1 + CCn1c(-c2cc(N3CCN(C)CC3)cnc2C(C)OC)c2c3cc(ccc31)-c1csc(n1)CC(NC(=O)C1CC1C)C(=O)N1CCCC(N1)C(=O)OCC(C)(C)C2,IC50,[1],20.9 nM
same,IC50,[2],< 3.16 nM
same,IC50,[3],< 3.16 nM
same,IC50,[4],< 3.16 nM
same,IC50,[5],< 3.16 nM
same,IC50,[6],< 3.16 nM
same,"viability, T/C",[7],59.3%
same,"viability, T/C",[8],50.1%
same,"viability, T/C",[9],49.4%
same,"viability, T/C",[10],38.6%
same,"viability, T/C",[11],26.4%
same,"viability, T/C",[12],24.1%
same,"viability, T/C",[13],41.5%
same,"viability, T/C",[14],46.7%
same,"viability, T/C",[15],39%
same,"viability, T/C",[16],26.8%
same,"viability, T/C",[17],20.1%
same,"viability, T/C",[18],17.4%
same,"viability, T/C",[19],32.3%
same,"viability, T/C",[20],32.1%
same,"viability, T/C",[21],29.2%
same,"viability, T/C",[22],17.4%
same,"viability, T/C",[23],17.8%
same,"viability, T/C",[24],15%
same,"viability, T/C",[25],23.7%
same,"viability, T/C",[26],18.3%
same,"viability, T/C",[27],14.9%
same,"viability, T/C",[28],10.8%
same,"viability, T/C",[29],10.3%
same,"viability, T/C",[30],6.61%
same,"viability, T/C",[31],8.68%
same,"viability, T/C",[32],11.3%
same,"viability, T/C",[33],12.6%
same,"viability, T/C",[34],8.23%
same,"viability, T/C",[35],9.48%
same,"viability, T/C",[36],7.34%
same,"viability, T/C",[37],12.8%
same,"viability, T/C",[38],7.85%
same,"viability, T/C",[39],6.59%
same,"viability, T/C",[40],9.27%
same,"viability, T/C",[41],7.62%
same,"viability, T/C",[42],6.97%
